Experimental data taken from US8629239B2, “Methylocystis strain SB2 materials and methods” (Iowa State University Research Foundation, Inc., priority 2010, dated 2014).

Key:
[1] = tested on: Methylosinus trichosporium OB3b expressing pMMO; conditions: 50 μM each of VC, t-DCE, and TCE; 110 hours of growth on methane; Lee et al., 2006; cited from earlier work
Methylocystis strain SB2 [2] = experiment: Degradation of chlorinated hydrocarbons by Methylocystis strain SB2 grown on ethanol or methane; assay type: cell-based; conditions: individual chlorinated hydrocarbons
Procedure: The ability of Methylocystis strain SB2 to degrade chlorinated hydrocarbon, including trichloroethylene (TCE), trans-dichloroethylene (t-DCE), vinyl chloride (VC), 1,1,1-trichloroethane (1,1,1-TCA), dichloromethane (DCM), and chloroform (CF), was compared when Methylocystis strain SB2 was grown on ethanol relative to when it was grown with methane.

[3] = Abiotic loss of chlorinated ethenes from serum vials with sterile NMS medium; assay type: physicochemical; conditions: 40 μM each in 5 ml sterile NMS medium; 216 hours
Procedure: Growth and degradation of chlorinated solvents. The growth of Methylocystis strain SB2 and degradation of the mixture of TCE, t-DCE, and VC were measured in three different conditions: methane, acetate, and acetate with acetylene (a selective inhibitor of both MMOs) (Prior and Dalton, 1985). The method used previously by Lee et al. (2006) and Yoon and Semrau (2008) was slightly modified for these assays. For all three growth conditions, Methylocystis strain SB2 was initially grown on methane to the mid-exponential phase (OD600 nm of 0.3-0.4). This cell suspension was flushed with compressed air as described above to remove residual methane and diluted to OD600<0.03 in 50 ml of fresh media in 250 ml Erlenmeyer flask. For growth on methane, methane was added to the headspace to an air:methane ratio of 1:1 and the cells were grown back to an OD600 of ca. 0.06. After the flask was flushed with compressed air as described earlier, five milliliter aliquots were transferred to serum vials specially fabricated to measure growth at OD600 over time as described earlier (Lee et al., 2006). Teflon-coated butyl-rubber stoppers (National Scientific Co., Duluth, Ga.) were used to seal the serum vials. After the serum vials were securely sealed, 5 ml of the air in headspace was replaced with 5 ml of methane to ensure sufficient methane for growth. For growth on acetate, 1 mM of sodium acetate (Im et al., 2010) instead of methane was added to the diluted cell suspension in 250-ml Erlenmeyer flasks. […] The growth of Methylocystis strain SB2 was monitored until the cell growth was no longer observed. The initial and final concentration of TCE, t-DCE, and VC were measured with HP5890 Series II gas chromatograph equipped with a 75 m DB-624 column with 0.53 mm internal diameter (J&W Scientific Co.). […] TCE and t-DCE were detected with an electron capture detector (ECD) with injector, oven, and detector temperatures set to 160, 120, and 250° C., respectively. VC was detected with a flame ionization detector (FID) with injector, oven, and detector temperatures set to 140, 120, and 250° C., respectively.

[4] = dimensionless, at 30° C.; cited from earlier work
Methylocystis strain SB2 [5] = experiment: Growth of Methylocystis strain SB2 on carbon sources; assay type: cell-based; conditions: for growth on substrate as carbon source: substrates 0.05%, methanol 0.01-1% (v/v), acetate 0.01-0.5% (w/v), ethanol 0.05-1% (v/v); for OD600 reached (final / max OD600) / growth rate: NMS medium, 10 μM copper, 30° C.; for growth rate: exponential kinetics
Procedure: Methylocystis strain SB2 was incubated in 50 ml of NMS medium in 250 ml flask supplemented with 10 μM of copper as CuCl2. The flasks were incubated at 30° C. with shaking at 250 rpm. Cell growth was monitored by measuring OD600 using a Spectronic-20 (Milton Roy Company, USA).
Growth of strain SB2 on Alternative Carbon Sources: Growth on methanol (0.05% v/v) and methylamine, glucose, fructose, sucrose, galactose, xylose, arabinose, and maltose (all at a concentration of 0.05% w/v) was tested, as were the organic acids formate, pyruvate, succinate, malate, citrate and oxalate (all added as sodium salts at a concentration of 0.05% w/v).
At this pH, 99% of the added acetate exists as the dissociated form. It is believed that undissociated acetate is transferred across the cell membrane, thus the proton motive force is dissipated to transport acetate into the cell (Axe and Bailey, 1995), which inhibits microbial growth.

Methylocystis strain SB2 [6] = experiment: Growth yield and carbon conversion efficiency, Methylocystis strain SB2; assay type: cell-based; conditions: NMS, 10 μM copper, standard error in parentheses
Procedure: For Table 1, the molar growth yield (g dry cell▪(mol substrate^−1)) and the efficiency of carbon conversion to cell material (g cell carbon▪(g substrate carbon)^−1) were determined in triplicate 5 ml of NMS medium supplemented with 10 μM of copper as CuCl2 using specially constructed 32.5 ml vials containing a CH4/air mixture (1:2 ratio in the headspace), or 0.10% (w/v) of sodium acetate as a sole carbon source. CH4 and acetate concentrations were measured using gas chromatography equipped with a FID (HP 5890 Series II) and ion chromatography (Dionex DX100, Sunnyvale, Calif.), respectively. Cell growth was monitored by measuring OD600 using a Spectronic-20 spectrometer (Milton Roy Company, USA). Turbidity was correlated to protein concentration using the Bio-Rad Protein Assay (Bio-Rad Laboratories, Richmond, Calif.) with bovine serum albumin (BSA) as the standard following manufacturer's instructions. To estimate the carbon content of biomass it was assumed that dry biomass was 50% protein, and C4H8O2N was the biomass elemental composition (Leak and Dalton, 1986).

[7] = tested on: Methylocella silvestris BL2; conditions: Dedysh, et al. (2005); cited from earlier work
Methylocystis strain SB2 [8] = experiment: Growth of Methylocystis strain SB2 in the presence of chlorinated ethenes; assay type: cell-based; conditions: grown on methane in the absence of chlorinated ethenes
Procedure: Methylocystis strain SB2 was initially grown on methane (1:1 methane-to-air ratio) to the mid-exponential phase (OD600 of 0.3-0.4 as measured using a Spectronic 20 spectrometer (Milton Roy Company, USA)). […] The cultures were then diluted to an OD600 of 0.06 with fresh NMS medium. Five ml aliquots were added to serum vials specially fabricated to measure growth as OD600 over time and respective growth substrates were added. For addition of methane, 5 ml of headspace was replaced with >99.99% methane after sealing the vials for a final concentration of 15% v/v in the headspace. […] Growth was monitored by measuring absorbance at 600 nm (OD600).
For all three growth conditions, Methylocystis strain SB2 was initially grown on methane to the mid-exponential phase (OD600 nm of 0.3-0.4). This cell suspension was flushed with compressed air as described above to remove residual methane and diluted to OD600<0.03 in 50 ml of fresh media in 250 ml Erlenmeyer flask. For growth on methane, methane was added to the headspace to an air:methane ratio of 1:1 and the cells were grown back to an OD600 of ca. 0.06. […] The growth of Methylocystis strain SB2 was monitored until the cell growth was no longer observed.

Methylocystis strain SB2 [9] = experiment: Degradation of chlorinated ethenes by Methylocystis strain SB2 grown on methane or acetate; assay type: cell-based; conditions: SB2 grown on CH3COOH + C2H2 (acetylene); 40 μM each of TCE, t-DCE, and VC; 216 hours
Procedure: Saturated stock solutions were prepared for TCE and t-DCE as described by Chang and Alvarez-Cohen (1996). Hamilton 1700 series gas-tight syringes (Hamilton, Reno, Nev.) were used to take aliquots from the stock solutions. Gaseous compounds, i.e., methane and VC, were transferred to gas bags before use. Aliquots were taken with Precision Lok gas-tight syringes purchased from Precision Sampling Corp (Baton Rouge, La.). The amount of chlorinated solvents to be added was calculated considering dimensionless Henry's constants at 30° C. […]
The method used previously by Lee et al. (2006) and Yoon and Semrau (2008) was slightly modified for these assays. […] The growth of Methylocystis strain SB2 was monitored until the cell growth was no longer observed. The initial and final concentration of TCE, t-DCE, and VC were measured with HP5890 Series II gas chromatograph equipped with a 75 m DB-624 column with 0.53 mm internal diameter (J&W Scientific Co.). […] TCE and t-DCE were detected with an electron capture detector (ECD) with injector, oven, and detector temperatures set to 160, 120, and 250° C., respectively. VC was detected with a flame ionization detector (FID) with injector, oven, and detector temperatures set to 140, 120, and 250° C., respectively.

Methylocystis strain SB2 [10] = experiment: Nitrogen source utilization by strain SB2 with methane as carbon source; assay type: cell-based; conditions: methane as the carbon source
Procedure: Many nitrogen sources were tested with methane as the carbon source: nitrate (as potassium nitrate), ammonia (as ammonium chloride), L-alanine, L-serine, L-isoluecine, L-proline, L-methionine, L-glutamine, L-asparagine, L-lysine, L-glycine, L-histidine, and L-arginine. […] The presence of nifH was confirmed using PCR using specific primers for nifH (Auman, et al., 2001; Zehr & McReynolds, 1989).

Methylocapsa aurea KYGT = conditions: growth on acetate; cited from earlier work
[11] = tested on: Methylocystis echinoides IMET 10491T; conditions: growth on acetate; Belova et al., 2010; cited from earlier work
Methylocystis heyeri H2T = conditions: growth on acetate; Belova et al., 2010; cited from earlier work
Methylocystis strain H2s = conditions: growth on acetate; Belova et al., 2010; cited from earlier work

In the case of `C=CCl` [VC, vinyl chloride], the “% degraded” value [1] is listed as 97%, the “degradation by strain SB2 grown on ethanol” value (“degradation … on ethanol” below) (Methylocystis strain SB2 [2]) is listed as “degraded” and the “degradation by strain SB2 grown on methane” value (shortened to “degradation … on methane”) (Methylocystis strain SB2 [2]) is listed as “degraded”. The “Abiotic loss, % (range of duplicate samples)” value (“Abiotic loss, %” for short) [3] was 1.8% and the “Henry's constants” value [4] was 1.262.
With `CO` [methanol] the “growth on substrate as carbon source” value (Methylocystis strain SB2 [5]) was “no growth”.
For `ClCCl` [DCM, dichloromethane], the “degradation … on ethanol” value (Methylocystis strain SB2 [2]) is given as “not”, the “degradation … on methane” value (Methylocystis strain SB2 [2]) is given as “not” and the “Henry's constants” value [4] is given as 0.125.
In the case of `C` [methane], the “OD600 reached (final / max OD600)” value (Methylocystis strain SB2 [5]) is reported as 0.83, the growth rate (Methylocystis strain SB2 [5]) is reported as 0.052 ± 0.004 h⁻¹ and the “Efficiency of carbon conversion” value (Methylocystis strain SB2 [6]) is reported as 12.3 (±0.5) %. The Growth yield (Methylocystis strain SB2 [6]) was 3.13 (±0.12) g cell dry weight ▪(mol substrate^−1, the “Efficiency of carbon conversion” value [7] was 13.2 (±0.698) % and the Growth yield [7] was 3.59 (±0.104) g cell dry weight ▪(mol substrate^−1. It also gave a specific growth rate (Methylocystis strain SB2 [8]) of 0.057 h⁻¹.
In the case of `ClC=C(Cl)Cl` [TCE, trichloroethylene], the “% degraded” value [1] is given as 35%, the “degradation … on ethanol” value (Methylocystis strain SB2 [2]) is given as “degraded” and the “degradation … on methane” value (Methylocystis strain SB2 [2]) is given as “degraded”. The “Abiotic loss, %” value [3] was 5.2%, the “% Chlorinated ethene degraded (range of duplicate samples)” value (Methylocystis strain SB2 [9]) was 3.3% and the “Henry's constants” value [4] was 0.458.
For `NC(=O)CC[C@H](N)C(=O)O` [L-glutamine], the “utilization as nitrogen source” value (Methylocystis strain SB2 [10]) was “able to utilize”.
In the case of `O=[N+]([O-])O` [nitrate], the “utilization as nitrogen source” value (Methylocystis strain SB2 [10]) is reported as “able to utilize”.
In the case of `CC(Cl)(Cl)Cl` [1,1,1-TCA, 1,1,1-trichloroethane], the “degradation … on ethanol” value (Methylocystis strain SB2 [2]) is listed as “degraded”, the “degradation … on methane” value (Methylocystis strain SB2 [2]) is listed as “degraded” and the “Henry's constants” value [4] is listed as 0.804.
In the case of `CC(=O)O` [acetate], the “OD600 reached (final / max OD600)” value (Methylocystis strain SB2 [5]) is reported as 0.26, the “growth on substrate as carbon source” value (Methylocystis strain SB2 [5]) is reported as “grew” and the “Efficiency of carbon conversion” value (Methylocystis strain SB2 [6]) is reported as 22.1 (±0.2) %. The Growth yield (Methylocystis strain SB2 [6]) was 12.0 (±0.13) g cell dry weight ▪(mol substrate^−1, the “max OD600” value (Methylocapsa aurea KYGT) was 0.3 and the “max OD410” value [11] was 0.09. For the same compound, the “Efficiency of carbon conversion” value [7] was 40.1 (±2.43) %, the Growth yield [7] was 20.5 (±1.24) g cell dry weight ▪(mol substrate^−1 and the “max OD410” value (Methylocystis heyeri H2T) was 0.14. The “max OD410” value (Methylocystis strain H2s) was about 0.23.
For `ClC(Cl)Cl` [CF, chloroform], the “degradation … on ethanol” value (Methylocystis strain SB2 [2]) is given as “not”, the “degradation … on methane” value (Methylocystis strain SB2 [2]) is given as “degraded” and the “Henry's constants” value [4] is given as 0.189.
In the case of `CCO` [ethanol], the “OD600 reached (final / max OD600)” value (Methylocystis strain SB2 [5]) is reported as 0.45, the growth rate (Methylocystis strain SB2 [5]) is reported as 0.022 ± 0.002 h⁻¹ and the “growth on substrate as carbon source” value (Methylocystis strain SB2 [5]) is reported as “grew”.
With `O=C(O)[C@@H]1CCCN1` [L-proline] the “utilization as nitrogen source” value (Methylocystis strain SB2 [10]) was “able to utilize”.
For `N` [ammonium], the “utilization as nitrogen source” value (Methylocystis strain SB2 [10]) was “able to utilize”.
For `Cl/C=C/Cl` [t-DCE, trans-dichloroethylene], the “% degraded” value [1] is listed as 98%, the “degradation … on ethanol” value (Methylocystis strain SB2 [2]) is listed as “degraded” and the “degradation … on methane” value (Methylocystis strain SB2 [2]) is listed as “degraded”. The “Abiotic loss, %” value [3] was 0 (0) % and the “Henry's constants” value [4] was 0.474.
In the case of `CC[C@H](C)[C@H](N)C(=O)O` [L-isoleucine], the “utilization as nitrogen source” value (Methylocystis strain SB2 [10]) is reported as “able to utilize”.
